{
  "source": "ChEMBL document CHEMBL1921793",
  "about": "“Bacterial production of the tunicate-derived antitumor cyclic depsipeptide didemnin B” (J Nat Prod, 2011)",
  "key": {"HT-29": {"tested_on": "HT-29", "experiment": "Cytotoxicity against human HT-29 cells after 96 hrs by microplate reader analysis", "type": "functional, cell-based", "settings": "HT-29, 96 h"}, "A549": {"tested_on": "A549", "experiment": "Cytotoxicity against human A549 cells after 96 hrs by microplate reader analysis", "type": "functional, cell-based", "settings": "A549, 96 h"}},
  "data": [
    {"smiles": "CC[C@H](C)[C@@H]1NC(=O)[C@@H](NC(=O)[C@@H](CC(C)C)N(C)C(=O)[C@@H]2CCCN2C(=O)[C@H](C)OC(C)=O)[C@H](C)OC(=O)[C@H](Cc2ccc(OC)cc2)N(C)C(=O)[C@@H]2CCCN2C(=O)[C@H](CC(C)C)NC(=O)[C@@H](C)C(=O)[C@H](C(C)C)OC(=O)C[C@@H]1O", "note": "[NORDIDEMNIN B]", "values": [
      {"measurement": "IC50", "setting": "HT-29", "value": 10, "unit": "ng/mL"},
      {"measurement": "IC50", "setting": "A549", "value": 7, "unit": "ng/mL"}
    ]}
  ]
}
